Nine cell lines from the supplement of paper PMC10307832 can be followed below.

Test in all cases: relative viability (nuclei count vs DMSO), 5 days (fraction); higher = more cells survive
Compound in one assay: Cc1ccc(F)c(NC(=O)Nc2ccc(-c3cccc4[nH]nc(N)c34)cc2)c1 [Linifanib]
Put shortly: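 Viability was defined as treated-well nuclei divided by vehicle-well nuclei, with the median taken over replicate plates. Cells from lung cancer lines sat overnight at 37 °C in 1536-well plates, received five √10-spaced library-drug doses by pinning on vehicle-anchored plates, and grew 5 days without medium change before one-step fixation, permeabilisation and Hoechst staining, 4× imaging and MetaXpress nuclear counts. Only plates with control CV under 25% and at least one doubling were kept.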

Compound in the assay “Linifanib + Trametinib”: Cc1ccc(F)c(NC(=O)Nc2ccc(-c3cccc4[nH]nc(N)c34)cc2)c1 [Linifanib] + CC(=O)Nc1cccc(-n2c(=O)n(C3CC3)c(=O)c3c(Nc4ccc(I)cc4F)n(C)c(=O)c(C)c32)c1 [Trametinib] (partner 0.02 µM)
Put shortly: (§1)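 For relative viability, nuclei counts in treated wells were divided by those in vehicle wells. Lung cancer cell lines had been pin-tool dosed in 1536-well plates the day after seeding and cultured for 5 days, then fixed and stained in one step (final 0.05% Triton X-100, 1% formaldehyde, 1 ug/ml Hoechst) and imaged at 4×. Doses were one drug alone or a fixed anchor-drug dose plus five library-drug doses (not always all listed) in √10 steps, and values are duplicate-plate medians.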

Compound in the assay “Linifanib + Bortezomib”: Cc1ccc(F)c(NC(=O)Nc2ccc(-c3cccc4[nH]nc(N)c34)cc2)c1 [Linifanib] + CC(C)C[C@H](NC(=O)[C@H](Cc1ccccc1)NC(=O)c1cnccn1)B(O)O [Bortezomib] (partner 0.002 µM)
In a few lines:
as §1

Compound in the assay “Linifanib + Phenformin”: Cc1ccc(F)c(NC(=O)Nc2ccc(-c3cccc4[nH]nc(N)c34)cc2)c1 [Linifanib] + N=C(N)NC(=N)NCCc1ccccc1 [Phenformin] (partner 250 µM)
In a few lines: as §1

Compound in the assay “Linifanib + Decitabine”: Cc1ccc(F)c(NC(=O)Nc2ccc(-c3cccc4[nH]nc(N)c34)cc2)c1 [Linifanib] + Nc1ncn([C@H]2C[C@H](O)[C@@H](CO)O2)c(=O)n1 [Decitabine] (partner 2 µM)
In a few lines: as §1

Compound in the assay “Linifanib + Vorinostat”: Cc1ccc(F)c(NC(=O)Nc2ccc(-c3cccc4[nH]nc(N)c34)cc2)c1 [Linifanib] + O=C(CCCCCCC(=O)Nc1ccccc1)NO [Vorinostat] (partner 1 µM)
In a few lines: as §1

Take HCC-15: the relative viability with Linifanib (0.03162 µM) came to 1.08; in the assay with Linifanib (0.1 µM), 1.05; in the assay with Linifanib (0.3162 µM), 0.939; in the assay with Linifanib + Trametinib (first compound 0.03162 µM), 0.346; with Linifanib + Trametinib (first compound 0.1 µM), 0.409; in the assay with Linifanib + Trametinib (first compound 0.3162 µM) it was 0.365. The relative viability with Linifanib + Bortezomib (first compound 0.03162 µM) was 1.04; with Linifanib + Bortezomib (first compound 0.1 µM) it was 0.99; with Linifanib + Bortezomib (first compound 0.3162 µM), 0.988; with Linifanib + Phenformin (first compound 0.03162 µM), 0.501; with Linifanib + Phenformin (first compound 0.1 µM) it was 0.567; with Linifanib + Phenformin (first compound 0.3162 µM), 0.479. In addition, the relative viability with Linifanib + Decitabine (first compound 0.03162 µM) was found to be 0.745; with Linifanib + Decitabine (first compound 0.1 µM), 0.693; with Linifanib + Decitabine (first compound 0.3162 µM), 0.629; with Linifanib + Vorinostat (first compound 0.03162 µM), 0.796; in the assay with Linifanib + Vorinostat (first compound 0.1 µM) it was 0.838; with Linifanib + Vorinostat (first compound 0.3162 µM) it was 0.792.

Take ChaGo-K-1: the relative viability with Linifanib (0.03162 µM) turned out to be 1.07; with Linifanib (0.1 µM) it was 1.01; in the assay with Linifanib (0.3162 µM), 0.983; with Linifanib + Trametinib (first compound 0.03162 µM), 0.904; with Linifanib + Trametinib (first compound 0.1 µM), 0.942; with Linifanib + Trametinib (first compound 0.3162 µM) it was 0.86. Moreover, the relative viability came to 0.946 in the assay with Linifanib + Bortezomib (first compound 0.03162 µM); 1.18 with Linifanib + Bortezomib (first compound 0.1 µM); 0.926 with Linifanib + Bortezomib (first compound 0.3162 µM); 0.488 in the assay with Linifanib + Phenformin (first compound 0.03162 µM); 0.581 in the assay with Linifanib + Phenformin (first compound 0.1 µM); 0.478 in the assay with Linifanib + Phenformin (first compound 0.3162 µM). Also, the relative viability with Linifanib + Decitabine (first compound 0.03162 µM) was found to be 0.497; with Linifanib + Decitabine (first compound 0.1 µM), 0.531; in the assay with Linifanib + Decitabine (first compound 0.3162 µM), 0.509; in the assay with Linifanib + Vorinostat (first compound 0.03162 µM), 0.767; with Linifanib + Vorinostat (first compound 0.1 µM), 0.807; with Linifanib + Vorinostat (first compound 0.3162 µM), 0.775.

As for LXF-289, the relative viability with Linifanib (0.03162 µM) is 1.04; in the assay with Linifanib (0.1 µM) it was 1.04; with Linifanib (0.3162 µM), 0.84; with Linifanib + Trametinib (first compound 0.03162 µM) it was 0.749; with Linifanib + Trametinib (first compound 0.1 µM) it was 0.695; in the assay with Linifanib + Trametinib (first compound 0.3162 µM), 0.624. The relative viability is 1.04 with Linifanib + Bortezomib (first compound 0.03162 µM); 1.01 in the assay with Linifanib + Bortezomib (first compound 0.1 µM); 0.952 in the assay with Linifanib + Bortezomib (first compound 0.3162 µM); 0.558 with Linifanib + Phenformin (first compound 0.03162 µM); 0.536 with Linifanib + Phenformin (first compound 0.1 µM); 0.496 with Linifanib + Phenformin (first compound 0.3162 µM). The relative viability came out at 0.376 in the assay with Linifanib + Decitabine (first compound 0.03162 µM); 0.355 with Linifanib + Decitabine (first compound 0.1 µM); 0.326 in the assay with Linifanib + Decitabine (first compound 0.3162 µM); 0.85 with Linifanib + Vorinostat (first compound 0.03162 µM); 0.762 in the assay with Linifanib + Vorinostat (first compound 0.1 µM); 0.807 with Linifanib + Vorinostat (first compound 0.3162 µM).

With NCI-H661, the relative viability with Linifanib (0.03162 µM) came out at 1.02; with Linifanib (0.1 µM), 0.977; with Linifanib (0.3162 µM) it was 0.962; with Linifanib + Trametinib (first compound 0.03162 µM), 0.577; with Linifanib + Trametinib (first compound 0.1 µM), 0.591; with Linifanib + Trametinib (first compound 0.3162 µM) it was 0.55. Further, the relative viability is 0.88 in the assay with Linifanib + Bortezomib (first compound 0.03162 µM); 0.915 in the assay with Linifanib + Bortezomib (first compound 0.1 µM); 0.645 with Linifanib + Bortezomib (first compound 0.3162 µM); 0.288 with Linifanib + Phenformin (first compound 0.03162 µM); 0.281 with Linifanib + Phenformin (first compound 0.1 µM); 0.313 with Linifanib + Phenformin (first compound 0.3162 µM). Moreover, the relative viability amounted to 0.559 with Linifanib + Decitabine (first compound 0.03162 µM); 0.626 with Linifanib + Decitabine (first compound 0.1 µM); 0.582 with Linifanib + Decitabine (first compound 0.3162 µM); 0.792 with Linifanib + Vorinostat (first compound 0.03162 µM); 0.751 with Linifanib + Vorinostat (first compound 0.1 µM); 0.75 with Linifanib + Vorinostat (first compound 0.3162 µM).

Regarding NCI-H358, the relative viability with Linifanib (0.03162 µM) was 0.896; with Linifanib (0.1 µM), 1.16; in the assay with Linifanib (0.3162 µM), 0.924; with Linifanib + Trametinib (first compound 0.03162 µM), 0.121; with Linifanib + Trametinib (first compound 0.1 µM), 0.121; with Linifanib + Trametinib (first compound 0.3162 µM), 0.137. Also, the relative viability with Linifanib + Phenformin (first compound 0.03162 µM) was 0.375; with Linifanib + Phenformin (first compound 0.1 µM) it was 0.385; with Linifanib + Phenformin (first compound 0.3162 µM), 0.322; in the assay with Linifanib + Decitabine (first compound 0.03162 µM), 0.231; with Linifanib + Decitabine (first compound 0.1 µM) it was 0.218; in the assay with Linifanib + Decitabine (first compound 0.3162 µM) it was 0.213. Also, the relative viability with Linifanib + Vorinostat (first compound 0.03162 µM) was 0.72; with Linifanib + Vorinostat (first compound 0.1 µM), 0.723; in the assay with Linifanib + Vorinostat (first compound 0.3162 µM), 0.803.

In the case of NCI-H1944, the relative viability was found to be 0.931 with Linifanib (0.03162 µM); 1.08 with Linifanib (0.1 µM); 0.963 in the assay with Linifanib (0.3162 µM); 0.427 with Linifanib + Trametinib (first compound 0.03162 µM); 0.416 with Linifanib + Trametinib (first compound 0.1 µM); 0.381 with Linifanib + Trametinib (first compound 0.3162 µM). Further, the relative viability came out at 0.212 with Linifanib + Phenformin (first compound 0.03162 µM); 0.205 with Linifanib + Phenformin (first compound 0.1 µM); 0.2 in the assay with Linifanib + Phenformin (first compound 0.3162 µM); 0.425 in the assay with Linifanib + Decitabine (first compound 0.03162 µM); 0.449 in the assay with Linifanib + Decitabine (first compound 0.1 µM); 0.415 in the assay with Linifanib + Decitabine (first compound 0.3162 µM). For the same cell line, the results for the relative viability with Linifanib + Vorinostat (first compound 0.03162 µM), in the assay with Linifanib + Vorinostat (first compound 0.1 µM) and with Linifanib + Vorinostat (first compound 0.3162 µM) were 0.73, 0.599 and 0.657, respectively.

Turning to CAL-12T, the relative viability with Linifanib (0.03162 µM) stood at 1.15; with Linifanib (0.1 µM), 0.99; with Linifanib (0.3162 µM) it was 0.9; with Linifanib + Trametinib (first compound 0.03162 µM), 0.338; in the assay with Linifanib + Trametinib (first compound 0.1 µM), 0.463; in the assay with Linifanib + Trametinib (first compound 0.3162 µM), 0.357. Moreover, the relative viability with Linifanib + Bortezomib (first compound 0.03162 µM) is 1.06; with Linifanib + Bortezomib (first compound 0.1 µM), 1.01; in the assay with Linifanib + Bortezomib (first compound 0.3162 µM), 0.8; with Linifanib + Phenformin (first compound 0.03162 µM) it was 0.636; with Linifanib + Phenformin (first compound 0.1 µM), 0.617; with Linifanib + Phenformin (first compound 0.3162 µM) it was 0.458. The figures for the relative viability with Linifanib + Vorinostat (first compound 0.03162 µM), with Linifanib + Vorinostat (first compound 0.1 µM) and in the assay with Linifanib + Vorinostat (first compound 0.3162 µM) were 0.884, 0.986 and 0.724, respectively.

With NCI-H2170, the relative viability with Linifanib (0.03162 µM) was 0.989; with Linifanib (0.1 µM), 1.01; with Linifanib (0.3162 µM), 0.928; in the assay with Linifanib + Trametinib (first compound 0.03162 µM) it was 0.922; with Linifanib + Trametinib (first compound 0.1 µM), 0.855; with Linifanib + Trametinib (first compound 0.3162 µM), 0.937. The relative viability was 0.426 with Linifanib + Phenformin (first compound 0.03162 µM); 0.411 with Linifanib + Phenformin (first compound 0.1 µM); 0.378 with Linifanib + Phenformin (first compound 0.3162 µM); 0.472 in the assay with Linifanib + Decitabine (first compound 0.03162 µM); 0.448 in the assay with Linifanib + Decitabine (first compound 0.1 µM); 0.453 with Linifanib + Decitabine (first compound 0.3162 µM). In addition, the values for the relative viability in the assay with Linifanib + Vorinostat (first compound 0.03162 µM), with Linifanib + Vorinostat (first compound 0.1 µM) and in the assay with Linifanib + Vorinostat (first compound 0.3162 µM) were 0.806, 0.814 and 0.823, respectively.

On to ABC-1, for which the relative viability was found to be 1.03 with Linifanib (0.03162 µM); 0.842 with Linifanib (0.1 µM); 0.672 with Linifanib (0.3162 µM); 0.25 in the assay with Linifanib + Bortezomib (first compound 0.03162 µM); 0.343 in the assay with Linifanib + Bortezomib (first compound 0.1 µM); 0.285 with Linifanib + Bortezomib (first compound 0.3162 µM). Besides, the relative viability with Linifanib + Phenformin (first compound 0.03162 µM) stood at 0.271; with Linifanib + Phenformin (first compound 0.1 µM), 0.234; with Linifanib + Phenformin (first compound 0.3162 µM), 0.24; with Linifanib + Decitabine (first compound 0.03162 µM), 0.961; with Linifanib + Decitabine (first compound 0.1 µM), 0.942; in the assay with Linifanib + Decitabine (first compound 0.3162 µM), 0.95. Besides, the relative viability turned out to be 1.19 in the assay with Linifanib + Vorinostat (first compound 0.03162 µM), 1.31 with Linifanib + Vorinostat (first compound 0.1 µM) and 0.906 in the assay with Linifanib + Vorinostat (first compound 0.3162 µM).
